These results are taken from US20240423207A1, “PICOLINAMIDE COMPOUNDS WITH FUNGICIDAL ACTIVITY” (CORTEVA AGRISCIENCE LLC, priority 2014, published 2024).

Like-named read-outs stand apart in the source and are kept apart here.

What all share (assay type): in vivo
Assay [1] concerns Glomerella lagenarium; Anamorph: Colletotrichum lagenarium. In words: Cucumber Anthracnose (COLLLA) fungicidal activity on cucumber seedlings. The settings on record: Colletotrichum orbiculare, 24 h, 1 Day Protectant, read-out: COLLLA 1 DP disease control. The procedure:
Technical grades of materials were dissolved in acetone, which were then mixed with nine volumes of water (H2O) containing 110 ppm Triton X-100. The fungicide solutions were applied onto wheat seedlings using an automated booth sprayer to run-off. All sprayed plants were allowed to air dry prior to further handling. All fungicides were evaluated using the aforementioned method for their activity vs. all target diseases, unless stated otherwise. Wheat leaf blotch and brown rust activity were also evaluated using track spray applications, in which case the fungicides were formulated as EC formulations, containing 0.1% Trycol 5941 in the spray solutions. Wheat plants (variety Yuma) were grown from seed in a greenhouse in 50% mineral soil/50% soil-less Metro mix until the first leaf was fully emerged, with 7-10 seedlings per pot. These plants were inoculated with an aqueous spore suspension of Septoria tritici either prior to or after fungicide treatments. After inoculation the plants were kept in 100% relative humidity (one day in a dark dew chamber followed by two to three days in a lighted dew chamber at 20° C.) to permit spores to germinate and infect the leaf. The plants were then transferred to a greenhouse set at 20° C. for disease to develop. When disease symptoms were fully expressed on the 1st leaves of untreated plants, infection levels were assessed on a scale of 0 to 100 percent disease severity. Percent disease control was calculated using the ratio of disease severity on treated plants relative to untreated plants. Example J: Evaluation of Fungicidal Activity: Cucumber Anthracnose (Glomerella lagenarium; Anamorph: Colletotrichum lagenarium; Bayer code COLLLA) Cucumber seedlings (variety Bush Pickle) were propagated in soil-less Metro mix, with each pot having one plant, and used in the test when 12 to 14 days old. Test plants were inoculated with an aqueous spore suspension of Colletotrichum lagenarium 24 hr after fungicide treatments. After inoculation the plants were kept in a dew room at 22° C. with 100% relative humidity for 48 hr to permit spores to germinate and infect the leaf. The plants were then transferred to a growth room set at 22° C. for disease to develop. Fungicide formulation, application and disease assessment on the sprayed leaves followed the procedures as described in the Example A.

Assay [2] relates to Puccinia triticina; Synonym: Puccinia recondita f sp. tritici. In words: Wheat Brown Rust (PUCCRT) fungicidal activity on wheat seedlings. As to conditions: Low Volume, 121.5 g/H. A digest of the protocol: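 Yuma wheat seedlings (first leaf emerged) were sprayed to run-off with compound in acetone/water 1:9 (110 ppm Triton X-100), and P. triticina spores were inoculated before or after treatment. Plants were kept overnight in a 22 °C dark dew room at 100% RH, then moved to a 24 °C greenhouse; % control was based on first-leaf severity (0–100%) versus untreated plants.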

The subject of assay [3] is Mycosphaerella graminicola; Anamorph: Septoria tritici. In words: Leaf Blotch of Wheat (SEPTTR) fungicidal activity on wheat seedlings. The settings on record: Zymoseptoria tritici, Low Volume, 121.5 g/H. In a few lines:
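Compounds in acetone were diluted with nine volumes of water containing 110 ppm Triton X-100, or as EC formulations with 0.1% Trycol 5941 for track spray. They were sprayed on first-leaf Yuma wheat seedlings inoculated with S. tritici before or after treatment. Plants spent 1 day dark and 2–3 days lit at 100% RH, 20 °C. Severity (0–100%) was scored once untreated plants were fully diseased; control was computed relative to untreated plants.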

Setting [4] is: 24 h, 1 Day Protectant, read-out: PUCCRT 1DP disease control.
Setting [5] is: 72 h, 3 Day Curative, read-out: PUCCRT 3DC disease control.
[6] abbreviates: 24 h, 1 Day Protectant, read-out: SEPTTR 1DP disease control.
[7] abbreviates: 72 h, 3 Day Curative, read-out: SEPTTR 3DC disease control.

With `COc1ccnc(C(=O)N[C@@H](C)C(=O)O[C@@H](C)C(c2ccccc2)c2ccccc2)c1OC(C)=O` [Cmpd 139, (S)-(S)-1,1-diphenylpropan-2-yl 2-(3-acetoxy-4-methoxypicolinamido)propanoate], the pest or weed control at 100 ppm in assay [1] is above 80%. Besides, the pest or weed control at 121.5 g/ha in assay [2] (setting [4]), in assay [2] (setting [5]), in assay [3] (setting [6]) and in assay [3] (setting [7]) was above 80% in each case.
As to `COc1ccnc(C(=O)N[C@@H](C)C(=O)O[C@@H](C)C(c2ccc(F)cc2F)c2ccc(F)cc2F)c1OC(C)=O` [Cmpd 150], the pest or weed control at 100 ppm in assay [1] was above 80%. The pest or weed control at 121.5 g/ha in assay [2] (setting [4]), in assay [2] (setting [5]), in assay [3] (setting [6]) and in assay [3] (setting [7]) was above 80% throughout.
In the case of `COc1ccnc(C(=O)N[C@@H](C)C(=O)O[C@@H](C)C(c2ccc(Cl)cc2)c2ccc(Cl)cc2)c1OCOC(C)=O` [Cmpd 176], the pest or weed control at 100 ppm in assay [1] was above 80%. Moreover, the pest or weed control at 121.5 g/ha in assay [2] (setting [4]), in assay [2] (setting [5]), in assay [3] (setting [6]) and in assay [3] (setting [7]) was above 80% in each case.
For `COc1ccnc(C(=O)N[C@@H](C)C(=O)O[C@@H](C)C(c2ccccc2)c2ccccc2)c1OC(=O)C(C)C` [Cmpd 140], the pest or weed control at 100 ppm in assay [1] was above 80%. The pest or weed control at 121.5 g/ha was above 80% in assay [2] (setting [4]), below 80% in assay [2] (setting [5]), above 80% in assay [3] (setting [6]) and above 80% in assay [3] (setting [7]).
`COc1ccnc(C(=O)N[C@@H](C)C(=O)O[C@@H](C)C(c2ccc(F)cc2)c2ccc(F)cc2)c1OCOC(C)=O` [Cmpd 146]: in assay [1], the pest or weed control at 100 ppm is above 80%. Moreover, the pest or weed control at 121.5 g/ha in assay [2] (setting [4]), in assay [2] (setting [5]), in assay [3] (setting [6]) and in assay [3] (setting [7]) was above 80% each time.
For `COc1ccnc(C(=O)N[C@@H](C)C(=O)O[C@@H](C)C(c2ccc(F)cc2)c2ccc(F)cc2)c1OC(C)=O` [Cmpd 145], the pest or weed control at 100 ppm in assay [1] is above 80%. Moreover, the pest or weed control at 121.5 g/ha in assay [2] (setting [4]), in assay [2] (setting [5]), in assay [3] (setting [6]) and in assay [3] (setting [7]) was above 80% each time.
For the compound `COc1ccnc(C(=O)N[C@@H](C)C(=O)O[C@@H](C)C(c2ccccc2)c2ccccc2)c1OCOC(C)=O` [Cmpd 141, (S)-(S)-1,1-diphenylpropan-2-yl 2-(3-(acetoxymethoxy)-4-methoxypicolinamido)propanoate], in assay [1], the pest or weed control at 100 ppm is above 80%. In addition, the pest or weed control at 121.5 g/ha in assay [2] (setting [4]), in assay [2] (setting [5]), in assay [3] (setting [6]) and in assay [3] (setting [7]) was above 80% each time.
On to `COc1ccnc(C(=O)N[C@@H](C)C(=O)O[C@@H](C)C(c2ccccc2)c2ccccc2)c1OCOC(=O)C(C)C` [Cmpd 142, (S)-(S)-1,1-diphenylpropan-2-yl 2-(3-((isobutyryloxy)methoxy)-4-methoxypicolinamido)propanoate], for which the pest or weed control at 100 ppm in assay [1] is above 80%. For the same compound, the pest or weed control at 121.5 g/ha in assay [2] (setting [4]), in assay [2] (setting [5]), in assay [3] (setting [6]) and in assay [3] (setting [7]) was above 80% throughout.
`COc1ccnc(C(=O)N[C@@H](C)C(=O)O[C@@H](C)C(c2ccc(F)cc2F)c2ccc(F)cc2F)c1OCOC(C)=O` [Cmpd 148]: in assay [1], the pest or weed control at 100 ppm is above 80%. Also, the pest or weed control at 121.5 g/ha in assay [2] (setting [4]), in assay [2] (setting [5]), in assay [3] (setting [6]) and in assay [3] (setting [7]) was above 80% throughout.
`COc1ccnc(C(=O)N[C@@H](C)C(=O)O[C@@H](C)C(c2ccc(Cl)cc2)c2ccc(Cl)cc2)c1OC(C)=O` [Cmpd 174]: in assay [1], the pest or weed control at 100 ppm is above 80%. The pest or weed control at 121.5 g/ha in assay [2] (setting [4]) is above 80%; in assay [2] (setting [5]) it was below 80%; in assay [3] (setting [6]), above 80%; in assay [3] (setting [7]) it was above 80%.
